In the experiment the target is T1, COX-2 (Homo sapiens, UniProt P35354).
T1 construct: from tissue; host or cells: heparinised human whole blood from a healthy donor, stimulated with LPS
T1 sequence (P35354 18-604): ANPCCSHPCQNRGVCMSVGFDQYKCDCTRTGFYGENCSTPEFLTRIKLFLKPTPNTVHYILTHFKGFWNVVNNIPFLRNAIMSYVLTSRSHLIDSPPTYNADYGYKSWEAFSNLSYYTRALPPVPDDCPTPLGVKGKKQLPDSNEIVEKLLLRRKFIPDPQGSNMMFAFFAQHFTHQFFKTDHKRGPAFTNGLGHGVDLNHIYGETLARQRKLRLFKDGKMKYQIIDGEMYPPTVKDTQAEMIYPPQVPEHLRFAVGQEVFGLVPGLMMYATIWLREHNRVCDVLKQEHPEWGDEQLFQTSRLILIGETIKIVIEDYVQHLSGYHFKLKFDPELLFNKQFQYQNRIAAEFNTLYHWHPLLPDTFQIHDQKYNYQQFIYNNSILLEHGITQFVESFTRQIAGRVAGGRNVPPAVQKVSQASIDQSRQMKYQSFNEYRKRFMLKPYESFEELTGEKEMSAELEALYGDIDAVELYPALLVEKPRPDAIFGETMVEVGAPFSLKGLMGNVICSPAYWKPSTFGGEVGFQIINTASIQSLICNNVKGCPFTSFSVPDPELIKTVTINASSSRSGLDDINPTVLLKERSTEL
The experiment in a line: Human whole blood assay, in vitro COX-2 assay (LPS-induced PGE2 by EIA). In kind it is cell-based. Conditions: ratio of IC50 COX-1 to IC50 COX-2. As to the method:
This test was performed according to the method described in Inflamm. Res., 45: 68-74 (1996).
A person who had not taken NSAIDs for at least one week and was healthy on the day of blood collection was selected as a subject for blood collection.
Blood was collected in heparin-treated test tubes (Venojectll blood collection tubes, Terumo Corporation), and an inflammatory stimulant, lipopolysaccharide (LPS) (Sigma-Aldrich Japan Inc., #L2880 from E. coli055:B5: diluted in phosphate buffered saline (PBS) to a final concentration of 100 μg/mL) was added to the blood. The mixture was dispensed in 500 μL aliquots into tubes. 2 μL of the test compound (final concentration: 0.1 μM to 1000 μM) dissolved in an appropriate solvent (DMSO or MilliQ water) was added and incubated at 37° C. for 24 hours to induce COX-2.
After incubation, the samples were centrifuged at 12,000×g for 5 minutes to separate serum. 100 μL of the obtained serum was added to 400 μL of ethanol to remove blood protein, and the mixture was centrifuged again at 12,000×g for 5 minutes. PGE2 in the supernatant was quantified by using an enzyme immunoassay (EIA) kit [Cayman (Ann, Arbor, Mich., USA) #514040]. The protocol followed the protocol attached to the kit.

One compound from patent US8431614B2, “Loxoprofen derivative and pharmaceutical preparation containing the same” (LTT Bio-Pharma Co., Ltd., priority 2009, dated 2013) can be followed below.

As for `CC(C(=O)O)c1ccc(CC2CCCC2=O)cc1` (stereo not shown) [LOXONIN, loxoprofen], the “COX-2 S[…]. 1/COX. 2” value is given as 4.0.
